In patent US9433621B2, “Substituted pyridine and pyrimidine derivatives and their use in treating viral infections” (Merck Sharp & Dohme Corp., priority 2010, dated 2016):

The compounds below were run on HCV replicon (assay: Cell-Based HCV Replicon Assay). Settings: Hepatitis C virus; HCV Replicon assay, EC90 given as numeric bound, Table VI; read-out: EC90.
In short: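 Replicon cells, 5000/well, treated 3 days with 10 serial 2-fold dilutions (top 25 μM to 1 μM) in 0.5% DMSO, 10% FBS. Replicon RNA measured by multiplex Taqman RT-PCR (NS5B amplicon, GAPDH control); EC50/EC90 = concentration giving ΔCT of 1/3.2 over baseline from sigmoid fit.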
`Cc1nc(N[C@H](C)c2c(F)c(F)c(C)c(F)c2F)nc(NC2(CO)CCCC2)c1-c1nc2c(C3CC3)nccc2s1` [Example 5128] showed an EC90 of over 1000 nM.

Same assay, conditions: Hepatitis C virus; HCV Replicon assay, EC90 range, Table VI; read-out: EC90
`Cc1nc(NCC2CCC2)nc(N[C@@H]2C[C@H](NC(=O)NC(C)(C)C)[C@@H](O)[C@H]2O)c1-c1nc2c(C3CC3)nccc2s1` [Example 5100] gave an EC90 of under 500 nM.
Work on `COC1(CCNc2nc(C)c(-c3nc4c(C)nccc4s3)c(N[C@@H]3C[C@H](C(C)(C)O)[C@@H](O)[C@H]3O)n2)CCCC1` [Example 5101] yielded an EC90 of under 500 nM.
`CO[C@@]1(CNc2nc(C)c(-c3nc4c(C)nccc4s3)c(N[C@@H]3C[C@H](C(C)(C)O)[C@@H](O)[C@H]3O)n2)CCOC1` [Example 5102] showed an EC90 of under 500 nM.
Compound `CO[C@@]1(CNc2nc(C)c(-c3nc4c(C)nccc4s3)c(N[C@@H]3C[C@H](C4(O)CCCC4)[C@@H](O)[C@H]3O)n2)CCOC1` [Example 5103] has an EC90 of under 500 nM.
For `COC[C@@H](C)Nc1nc(C)c(-c2nc3c(C)nccc3s2)c(N[C@@H]2C[C@H](C3(O)CCCC3)[C@@H](O)[C@H]2O)n1` [Example 5104], the EC90 was under 500 nM.
`COCCNc1nc(C)c(-c2nc3c(C)nccc3s2)c(N[C@@H]2C[C@H]([C@H](O)C(C)C)[C@@H](O)[C@H]2O)n1` [Example 5105] showed an EC90 of under 500 nM.
`Cc1nc(NCc2cc(F)c(F)cc2F)nc(N[C@@H]2C[C@H]([C@H](O)C(C)C)[C@@H](O)[C@H]2O)c1-c1nc2c(C)nccc2s1` [Example 5106] showed an EC90 of under 500 nM.
Work on `Cc1nc(N)nc(N[C@@H]2C[C@H](C3(O)CCCC3)[C@@H](O)[C@H]2O)c1-c1nc2c(C)nccc2s1` [Example 5107] yielded an EC90 of under 500 nM.
`Cc1nc(NC2(C3CCCC3)CC2)nc(N[C@@H]2C[C@H]([C@H](O)C(C)C)[C@@H](O)[C@H]2O)c1-c1nc2c(C)nccc2s1` [Example 5108] gave an EC90 of under 500 nM.
In the case of `Cc1nc(NCC2(O)CCCC2)nc(N[C@@H]2C[C@H](C3(O)CCCC3)[C@@H](O)[C@H]2O)c1-c1nc2c(C)nccc2s1` [Example 5110], the EC90 is reported as under 500 nM.
For `Cc1nc(NCC2(O)CC2)nc(N[C@@H]2C[C@H](C3(O)CCCC3)[C@@H](O)[C@H]2O)c1-c1nc2c(C)nccc2s1` [Example 5111], the EC90 was under 500 nM.
In the case of `CCO[C@H]1C[C@H](CNc2nc(C)c(-c3nc4c(C)nccc4s3)c(N[C@@H]3C[C@H](C4(O)CCCC4)[C@@H](O)[C@H]3O)n2)C1` [Example 5112], the EC90 is reported as under 500 nM.
Work on `Cc1nc(NCC(F)(F)C(F)(F)C(F)(F)F)nc(N[C@@H]2C[C@H](C3(O)CCCC3)[C@@H](O)[C@H]2O)c1-c1nc2c(C)nccc2s1` [Example 5113] yielded an EC90 of 5000 to 25000 nM.
Compound `Cc1nc(NCC(F)(F)C(F)(F)F)nc(N[C@@H]2C[C@H](C3(O)CCCC3)[C@@H](O)[C@H]2O)c1-c1nc2c(C)nccc2s1` [Example 5114] has an EC90 of under 500 nM.
For `Cc1nc(NCC2(O)CCOC2)nc(N[C@@H]2C[C@H](C3(O)CCCC3)[C@@H](O)[C@H]2O)c1-c1nc2c(C)nccc2s1` (some centres unmarked) [Example 5115], the EC90 was under 500 nM.
In the case of `Cc1nc(NCC(F)(F)F)nc(NC2(CO)CCCC2)c1-c1nc2c(C)nccc2s1` [Example 5116], the EC90 is reported as under 500 nM.
`Cc1nc(NCc2c(F)cccc2F)nc(NC2(CO)CCCC2)c1-c1nc2c(C)nccc2s1` [Example 5117] was tested, and the EC90 was under 500 nM.
With `Cc1nc(NCC2(O)CC2)nc(N[C@@H]2C[C@H](CS(=O)(=O)c3cc(F)cc(F)c3)[C@@H](O)[C@H]2O)c1-c1nc2c(C)nccc2s1` [Example 5118] the EC90 was under 500 nM.
`Cc1nc(NCC2(O)CCCC2)nc(N[C@@H]2C[C@H](CS(=O)(=O)c3cc(F)cc(F)c3)[C@@H](O)[C@H]2O)c1-c1nc2c(C)nccc2s1` [Example 5119] showed an EC90 of under 500 nM.
`Cc1nc(NCCC2(O)CCCC2)nc(N[C@@H]2C[C@H](CS(=O)(=O)c3cc(F)cc(F)c3)[C@@H](O)[C@H]2O)c1-c1nc2c(C)nccc2s1` [Example 5120] gave an EC90 of under 500 nM.
In the case of `Cc1nc(NC2(C3CC3)CC2)nc(NC2(CO)CCCC2)c1-c1nc2c(C)nccc2s1` [Example 5121], the EC90 is reported as under 500 nM.
Compound `Cc1nc(NC2(C3CC3)CC2)nc(N[C@@H]2C[C@H]([C@@H](O)C(C)C)[C@@H](O)[C@H]2O)c1-c1nc2c(C)nccc2s1` [Example 5122] has an EC90 of under 500 nM.
`COCCNc1nc(C)c(-c2nc3c(C)nccc3s2)c(N[C@@H]2C[C@H]([C@@H](O)C(C)C)[C@@H](O)[C@H]2O)n1` [Example 5123] was tested, and the EC90 was under 500 nM.
In the case of `Cc1nc(N)nc(NC2(CO)CCCC2)c1-c1nc2c(C3CC3)nccc2s1` [Example 5124], the EC90 is reported as under 500 nM.
Work on `Cc1nc(N)nc(N[C@@H]2C[C@H]([C@@H](O)C(C)C)[C@@H](O)[C@H]2O)c1-c1nc2c(C)nccc2s1` [Example 5125] yielded an EC90 of under 500 nM.
`COCCNc1nc(C)c(-c2nc3c(C4CC4)nccc3s2)c(NC2(CO)CCCC2)n1` [Example 5126] gave an EC90 of under 500 nM.
`Cc1nc(NCC2(O)CCCC2)nc(NC2(CO)CCCC2)c1-c1nc2c(C3CC3)nccc2s1` [Example 5127] showed an EC90 of under 500 nM.
For `Cc1nc(NCC(F)(F)C(F)(F)F)nc(NC2(CO)CCCC2)c1-c1nc2c(C3CC3)nccc2s1` [Example 5129], the EC90 was under 500 nM.
Compound `Cc1nc(N)nc(NC2(CO)CCCC2)c1-c1nc2c(C)nccc2s1` [Example 5130] has an EC90 of under 500 nM.
`COCCNc1nc(C)c(-c2nc3c(C)nccc3s2)c(NC2(CO)CCCC2)n1` [Example 5131] showed an EC90 of under 500 nM.
`Cc1nc(NCC2CC2)nc(NC2(CO)CCCC2)c1-c1nc2c(C)nccc2s1` [Example 5132] was tested, and the EC90 was under 500 nM.
In the case of `Cc1nc(NCC2(O)CCCC2)nc(NC2(CO)CCCC2)c1-c1nc2c(C)nccc2s1` [Example 5133], the EC90 is reported as under 500 nM.
With `Cc1nc(NCC(F)(F)C(F)(F)F)nc(NC2(CO)CC2)c1-c1nc2c(C)nccc2s1` [Example 5134] the EC90 was under 500 nM.
`CO[C@@H](CNc1nc(C)c(-c2nc3c(C)nccc3s2)c(N[C@@H]2C[C@H](C(C)(C)O)[C@@H](O)[C@H]2O)n1)c1ccccc1` [Example 5135] was tested, and the EC90 was under 500 nM.
Compound `CO[C@H]1CCCC[C@@H]1Nc1nc(C)c(-c2nc3c(C)nccc3s2)c(N[C@@H]2C[C@H](CO)[C@@H](O)[C@H]2O)n1` [Example 5136] has an EC90 of under 500 nM.
`CO[C@H]1CCCC[C@@H]1Nc1nc(C)c(-c2nc3c(C)nccc3s2)c(N[C@@H]2C[C@H](C(C)(C)O)[C@@H](O)[C@H]2O)n1` [Example 5137] showed an EC90 of 500 to 5000 nM.
`CO[C@H]1CCCC[C@@H]1Nc1nc(C)c(-c2nc3c(C4CC4)nccc3s2)c(N[C@@H]2C[C@H](CO)[C@@H](O)[C@H]2O)n1` [Example 5138] gave an EC90 of under 500 nM.
`CO[C@@H]1CCCC[C@H]1Nc1nc(C)c(-c2nc3c(C)nccc3s2)c(N[C@@H]2C[C@H](CO)[C@@H](O)[C@H]2O)n1` [Example 5139] gave an EC90 of under 500 nM.
With `CO[C@@H]1CCCC[C@H]1Nc1nc(C)c(-c2nc3c(C)nccc3s2)c(N[C@@H]2C[C@H](C(C)(C)O)[C@@H](O)[C@H]2O)n1` [Example 5140] the EC90 was under 500 nM.
Work on `CO[C@@H]1CCCC[C@H]1Nc1nc(C)c(-c2nc3c(C4CC4)nccc3s2)c(N[C@@H]2C[C@H](CO)[C@@H](O)[C@H]2O)n1` [Example 5141] yielded an EC90 of under 500 nM.
`CO[C@@H]1CCC[C@@H]1Nc1nc(C)c(-c2nc3c(C4CC4)nccc3s2)c(N[C@@H]2C[C@H](CO)[C@@H](O)[C@H]2O)n1` [Example 5142] gave an EC90 of under 500 nM.
Work on `CO[C@@H]1CCC[C@@H]1Nc1nc(C)c(-c2nc3c(C)nccc3s2)c(N[C@@H]2C[C@H](CO)[C@@H](O)[C@H]2O)n1` [Example 5143] yielded an EC90 of under 500 nM.
`CO[C@@H]1CCC[C@@H]1Nc1nc(C)c(-c2nc3c(C)nccc3s2)c(N[C@@H]2C[C@H](C(C)(C)O)[C@@H](O)[C@H]2O)n1` [Example 5144] showed an EC90 of 500 to 5000 nM.
